Data from US10603322B2, “Therapeutic targeting of casein kinase 1δ in breast cancer” (The Scripps Research Institute, priority 2015, dated 2020).

Columns and labels:
cancer cells = details: cited from earlier work
BCM-4013 PDX tumors = details: mouse, in vivo; cited from earlier work
MDA-MB-231 TNBC cells = experiment: Cell proliferation / growth assay; format: cell-based, human

## COc1cc(OC)c(C=C2C(O)=Nc3ccccc32)c(OC)c1 [IC261]
Cancer cells; not by inhibition of CK1δ/CK1ε
  mode of action: blocking tubulin function

## CC(=O)O[C@@]12CO[C@@H]1C[C@H](O)[C@@]1(C)C(=O)[C@H](O)C3=C(C)[C@@H](OC(=O)[C@H](O)[C@@H](NC(=O)OC(C)(C)C)c4ccccc4)C[C@@](O)([C@@H](OC(=O)c4ccccc4)[C@H]21)C3(C)C [docetaxel]
BCM-4013 PDX tumors
  response of the BCM-4013 model to treatment: limited response

## Nc1nccc(-c2c(-c3ccc(F)cc3)ncn2C2CCCCC2)n1 [PF670462]
Cancer cells
  anti-cancer activity: lacks anti-cancer activity

## CC(C)(C)c1cc(NC(=O)Nc2ccc(-c3cn4c(n3)sc3cc(OCCN5CCOCC5)ccc34)cc2)no1 [AC220, reference compound]
MDA-MB-231 TNBC cells
  anti-proliferative activity: insensitive
